Data set [1] concerns Mus musculus. The data set is described as follows: Anticonvulsant activity in albino mouse assessed as protection against 6 Hz psychomotor seizure at 100 mg/kg, ip after 1 hr by minimal clonic seizure test. The class given is functional, organism-based. Further details: dose 100 mg/kg.
Data set [2] relates to Mus musculus. The data set is described as follows: Anticonvulsant activity in albino mouse assessed as protection against subcutaneous metrazole-induced seizures at 100 mg/kg, ip after 1 hr. Type of data set: functional, organism-based. Further details: dose 100 mg/kg.
Another data set relates to Rattus norvegicus. Briefly: Anticonvulsant activity in po dosed albino Sprague-Dawley rat assessed as protection against maximal electroshock-induced seizures after […] to 4 hrs. The class given is functional, organism-based. On the technique in general: The maximal electroshock test induces tonic seizures with an electrical stimulus.
The subject of data set [3] is Mus musculus. Briefly: Neurotoxicity in albino mouse minimal clonic seizure model assessed as minimal motor impairment at 100 mg/kg, ip after 0.5 hrs by rotorod test. The class given is toxicity, organism-based. Further details: dose 100 mg/kg, route intraperitoneal. Particulars: in vivo.
Data set [4] deals with Mus musculus. Briefly: Neurotoxicity in albino mouse minimal clonic seizure model assessed as minimal motor impairment at 100 mg/kg, ip after 4 hrs by rotorod test. The class given is toxicity, organism-based. Further details: dose 100 mg/kg, route intraperitoneal. To be noted: in vivo.
The subject of data set [5] is Mus musculus. Briefly: Toxicity in subcutaneous metrazole treated albino mouse assessed as myoclonic jerks at 100 mg/kg, ip after 0.25 hrs. Further details: dose 100 mg/kg. The class given is organism-based. Particulars: in vivo, sc.
Data set [6] deals with Mus musculus. Briefly: Neurotoxicity in albino mouse assessed as minimal motor impairment at 100 mg/kg, ip after 1 hr by rotorod test. The class given is toxicity, organism-based. To be noted: in vivo. Further details: dose 100 mg/kg, route intraperitoneal. A general note: Falling from the rotarod earlier than controls is read as motor impairment.
Data set [7] deals with Mus musculus. Briefly: Neurotoxicity in albino mouse assessed as loss of righting reflex at 100 mg/kg, ip after 0.25 hrs by rotorod test. Type of data set: toxicity, organism-based. Further details: dose 100 mg/kg, route intraperitoneal. Particulars: in vivo.
In data set [8] the test system is Mus musculus. Briefly: Neurotoxicity in albino mouse minimal clonic seizure model assessed as minimal motor impairment at 100 mg/kg, ip after 0.25 hrs by rotorod test. Further details: dose 100 mg/kg, route intraperitoneal. To be noted: in vivo. The class given is toxicity, organism-based.
For data set [9], the system named is Mus musculus. Briefly: Anticonvulsant activity in albino mouse assessed as protection against maximal electroshock-induced seizures at 100 mg/kg, ip after 1 hr. The class given is functional, organism-based. Further details: dose 100 mg/kg.
For data set [10], the system named is Mus musculus. Briefly: Neurotoxicity in albino mouse assessed as minimal motor impairment at 100 mg/kg, ip after 4 hrs by rotorod test. Type of data set: toxicity, organism-based. Further details: dose 100 mg/kg, route intraperitoneal. To be noted: in vivo.
Data set [11] relates to Mus musculus. The data set is described as follows: Anticonvulsant activity in albino mouse assessed as protection against 6 Hz psychomotor seizure at 100 mg/kg, ip after 0.25 hrs by minimal clonic seizure test. Type of data set: functional, organism-based. Further details: dose 100 mg/kg.
Data set [12] relates to Mus musculus. Briefly: Anticonvulsant activity in albino mouse assessed as protection against maximal electroshock-induced seizures at 100 mg/kg, ip after 0.5 hrs. Type of data set: functional, organism-based. Further details: dose 100 mg/kg.
In data set [13] the test system is Mus musculus. Briefly: Neurotoxicity in albino mouse minimal clonic seizure model assessed as minimal motor impairment at 100 mg/kg, ip after 1 hr by rotorod test. Type of data set: toxicity, organism-based. To be noted: in vivo. Further details: dose 100 mg/kg, route intraperitoneal.
Data set [14] has as its system Mus musculus. The data set is described as follows: Anticonvulsant activity in albino mouse assessed as protection against subcutaneous metrazole-induced seizures at 100 mg/kg, ip after 0.5 hrs. Type of data set: functional, organism-based. Further details: dose 100 mg/kg.
For data set [15], the system named is Mus musculus. Briefly: Anticonvulsant activity in albino mouse assessed as protection against subcutaneous metrazole-induced seizures at 100 mg/kg, ip after 4 hrs. The class given is functional, organism-based. Further details: dose 100 mg/kg.
In data set [16] the test system is Mus musculus. The data set is described as follows: Neurotoxicity in albino mouse assessed as minimal motor impairment at 100 mg/kg, ip after 0.5 hrs by rotorod test. The class given is toxicity, organism-based. Particulars: in vivo. Further details: dose 100 mg/kg, route intraperitoneal.
Data set [17] concerns Mus musculus. Briefly: Anticonvulsant activity in albino mouse assessed as protection against 6 Hz psychomotor seizure at 100 mg/kg, ip after 0.5 hrs by minimal clonic seizure test. Further details: dose 100 mg/kg. Type of data set: functional, organism-based.
Data set [18] deals with Mus musculus. The data set is described as follows: Neurotoxicity in albino mouse minimal clonic seizure model assessed as minimal motor impairment at 100 mg/kg, ip after 2 hrs by rotorod test. The class given is toxicity, organism-based. Further details: dose 100 mg/kg, route intraperitoneal. To be noted: in vivo.
Data set [19] relates to Mus musculus. The data set is described as follows: Anticonvulsant activity in albino mouse assessed as protection against maximal electroshock-induced seizures at 100 mg/kg, ip after 0.25 hrs. The class given is functional, organism-based. Further details: dose 100 mg/kg.
In data set [20] the test system is Mus musculus. The data set is described as follows: Anticonvulsant activity in albino mouse assessed as protection against 6 Hz psychomotor seizure at 100 mg/kg, ip after 2 hrs by minimal clonic seizure test. The class given is functional, organism-based. Further details: dose 100 mg/kg.
Data set [21] deals with Mus musculus. The data set is described as follows: Anticonvulsant activity in albino mouse assessed as protection against maximal electroshock-induced seizures at 100 mg/kg, ip after 4 hrs. Type of data set: functional, organism-based. Further details: dose 100 mg/kg.
The test system of data set [22] is Mus musculus. Briefly: Anticonvulsant activity in albino mouse assessed as protection against 6 Hz psychomotor seizure at 100 mg/kg, ip after 4 hrs by minimal clonic seizure test. Type of data set: functional, organism-based. Further details: dose 100 mg/kg.

Active and inactive are the calls of the source. The calls are words filed in the database; no cut-off is given here.

`Cc1ccccc1[C@H]1C(=O)NC(=O)[C@@H]2CCCN12`: the result in the data set with Mus musculus [1], with Mus musculus [11] and with Mus musculus [17] was Active. The outcome in the data set on Mus musculus [2], in the data set on Rattus norvegicus, in the data set with Mus musculus [9], in the data set on Mus musculus [12], with Mus musculus [14] and with Mus musculus [15] was inactive. Also, the outcome with Mus musculus [19], with Mus musculus [20], in the data set on Mus musculus [21] and in the data set on Mus musculus [22] was inactive. The Activity result in the data set with Mus musculus [3] is reported as “Non-toxic”; in the data set on Mus musculus [4] it was “Non-toxic”; in the data set with Mus musculus [5] it was “Toxic”; in the data set on Mus musculus [6], “Non-toxic”; in the data set with Mus musculus [7] it was “Toxic”; with Mus musculus [8] it was “Non-toxic”. The Activity result with Mus musculus [10], in the data set on Mus musculus [13], with Mus musculus [16] and in the data set with Mus musculus [18] was “Non-toxic” each time.
